# In patent US9688764B2, “Methods of treating breast cancer by administering anti-human prolactin receptor (PRLR) antibodies” (REGENERON PHARMACEUTICALS, INC., priority 2013, dated 2017):
# Like-named read-outs stand apart in the source and are kept apart here.
# T1: IL-6R on KG-1, HEK293, HEK293/IL-4R and Ramos cells (Homo sapiens, UniProt P08887)
# T1 construct: KG-1 (IL-4R^+), HEK293/IL-4R and Ramos (IL-6R^+) cells; endogenous in cells; host or cells: Ramos (IL-6R+), KG-1, HEK293, HEK293/IL-4R
# T1 sequence (P08887 20-468): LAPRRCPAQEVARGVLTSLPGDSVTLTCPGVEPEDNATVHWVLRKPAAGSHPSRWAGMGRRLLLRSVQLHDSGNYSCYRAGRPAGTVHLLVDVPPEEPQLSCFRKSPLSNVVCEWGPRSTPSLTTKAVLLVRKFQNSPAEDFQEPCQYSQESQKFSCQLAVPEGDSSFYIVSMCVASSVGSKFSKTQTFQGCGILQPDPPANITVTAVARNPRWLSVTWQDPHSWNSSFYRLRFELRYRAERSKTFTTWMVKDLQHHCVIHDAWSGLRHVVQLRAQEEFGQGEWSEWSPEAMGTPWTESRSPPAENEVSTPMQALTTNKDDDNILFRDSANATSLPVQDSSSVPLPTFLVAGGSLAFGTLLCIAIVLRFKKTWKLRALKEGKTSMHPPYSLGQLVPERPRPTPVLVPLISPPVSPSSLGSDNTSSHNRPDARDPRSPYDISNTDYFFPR
# B1: VV6A9-5: exemplary anti-IL-6R antibody, see U.S. Pat. No. 7,582,298 (antibody, V domains shown)
# VH: EVQLVESGGGLVQPGRSLRLSCAASGFTFDDYALHWVRQAPGKGLEWVSGVSWNGGRIGYADSVKGRFTISRDNAKNSLFLQMNSLRVEDTALYYCAKGRDAFDIWGQGTLVTVSS
# VL: DIQMTQSPSSVSASVGDRVTITCRASQGISSWLAWYQQKPGKAPKLLIYAASSLQSGVPSRFSGSGSGTDFTLTISSLQPEDFATYYCQHAYSFPYTFGQGTKLEIK
# What was measured:
# MCF7 (MCF7/ATCC) cells = assay: Cell viability (cell kill) assay, nuclear counts; format: cell-based; settings: MCF7
# Method in brief: (§1)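 Anti-PRLR ADCs or free DM1-SMe were added at 500 nM to 5 pM final to cells seeded overnight and were incubated 3 days. MCF7 lines were fixed with 4% formaldehyde plus Hoechst 33342, and nuclei were counted by imaging, with digitonin […] background subtracted. Viability was expressed as % of untreated cells, and IC50 was obtained from a 4-parameter fit of a 10-point curve.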
# NCI-N87 cells = assay: Cell viability (cell kill) assay; format: cell-based; settings: Table 17
# From the text: (§2) PRLR-overexpressing cells, including HEK293, PC3, MCF7 and NCI-N87, were generated to assess the ability of anti-PRLR conjugated antibodies to reduce cell viability. For comparative purposes, PC3 and T47D cells with overexpressed ErbB2 were also generated, as well as an MCF7 cell line over-expressing both hPRLR and hErbB2. Briefly, Lipofectamine® 2000-mediated transfection methodology was utilized to generate HEK293 cells expressing human PRLR (HEK293/hPRLR) or human ErbB2 (HEK293/hErbB2). Lipofectamine LTX with Plus Reagent was used to generate PC3 cells expressing human PRLR (PC3/hPRLR) or human ErbB2 (PC3/hErbB2). Lentiviral-mediated transduction was utilized to generate MCF7 cells expressing human PRLR (MCF7/hPRLR), NCI-N87 cells expressing human PRLR (NCI-N87/hPRLR), T47D cells over-expressing human ErbB2 (T47D/hErbB2), and MCF7 cells expressing both human PRLR and human ErbB2 (MCF7/hPRLR/hErbB2). All lines were selected for at least two weeks in complete growth media plus appropriate selection reagents. Stably expressing populations were enriched for PRLR expression via FACS using the anti PRLR antibody Control I.
# (§3) Next, the ability of anti-PRLR-DM1 antibody-drug conjugates (i.e., anti-PRLR antibodies conjugated to DM1 via a non-cleavable linker [SMCC]) to reduce cell viability was determined using in vitro cell based assays. Cells were seeded in PDL-coated 96 well plates at 1500 to 10000 cells per well in complete growth media and allowed to grow overnight. For cell viability curves, ADCs or free DM1 (as the methyl disulfide derivative DM1-SMe) were added to the cells at final concentrations ranging from 500 nM to 5 pM and incubated for 3 days. The 293, PC3 and T47D cells were incubated with CCK8 (Dojindo, Rockville, Md.) for the final 1-3 hours and the absorbance at 450 nm (OD450) was determined on a Flexstation3 (Molecular Devices, Sunnyvale, Calif.). MCF7 cells were treated with Hoechst 33342 nuclear stain while being fixed with 4% formaldehyde. Images were acquired on the ImageXpress micro XL (Molecular Devices, Sunnyvale, Calif.) and nuclear counts were determined via Columbus image analysis software (Perkin Elmer, Shelton, Conn.). Background OD450 values (PC3, 293, and T47D) or nuclear counts (MCF7) from digitonin (40 nM) treated cells was subtracted from all wells and viability was expressed as a percentage of the untreated controls. IC50 values were determined from a four-parameter logistic equation over a 10-point response curve (GraphPad Prism).
# The potency of anti-PRLR conjugated antibodies compared with a similarly conjugated antibody to the co-expressed ErbB2 cell surface target was also assessed. […]
# PC3/hPRLR cells = assay: Cell viability (cell kill) assay; format: cell-based, human; settings: PC3/PRLR
# Method in brief: (§4)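 PC3 and PC3/hPRLR (lipofection-generated, FACS-enriched for PRLR) cells exposed 3 days to anti-PRLR ADCs or free DM1-SMe, 500 nM to 5 pM. Viability by CCK8 OD450, digitonin background subtracted, as % of untreated; IC50 from four-parameter fit of 10-point curves.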
# T47D cells = assay: Cell viability (cell kill) assay; format: cell-based; settings: T47D; for IC50: read-out: IC50
# Method in brief: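 T47D cells grown overnight, then exposed 3 days to anti-PRLR ADCs (DM1 via non-cleavable SMCC linker, or other maytansinoid toxins) or free DM1-SMe, 500 nM to 5 pM. Viability by CCK8 OD450, digitonin background subtracted, as % of untreated; IC50 from 10-point four-parameter fit. PRL (15 nM) co-incubation tested separately.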
# PC3/hErbB2 cells = assay: Cell viability (cell kill) assay; format: cell-based, human; settings: PC3/ErbB2; Table 15
# From the text: as §2, §3
# (§5) The potency of anti-PRLR conjugated antibodies compared with a similarly conjugated antibody to the co-expressed ErbB2 cell surface target was also assessed. Both PRLR and ErbB2 are expressed in a majority of breast cancers, and anti-ErbB2 antibodies conjugated to DM1 have shown clinical efficacy in targeting ErbB2 (+) breast cancer (Hurvitz et al; 2013).
# T47D/hErbB2 cells = assay: Cell viability (cell kill) assay; format: cell-based, human; settings: T47D/ErbB2; Table 16
# From the text: as §2, §3, §5
# HEK293/hErbB2 cells = assay: Cell viability (cell kill) assay; format: cell-based, human; settings: 293/ErbB2; Table 14
# From the text: as §2, §3, §5
# MCF7/hPRLR/hErbB2 cells = assay: Cell viability (cell kill) assay; format: cell-based, human; settings: MCF/PRLR + ErbB2; Table 17
# From the text: as §2, §3, §5
# NCI-N87/hPRLR cells = assay: Cell viability (cell kill) assay; format: cell-based, human; settings: NCI-N87/PRLR; Table 17
# From the text: as §2, §3, §5
# HEK293 (293) cells = assay: Cell viability (cell kill) assay; format: cell-based; settings: 293
# Method in brief: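 Anti-PRLR–DM1 ADCs (non-cleavable SMCC linker) or free DM1-SMe, 500 nM to 5 pM for 3 days on parental or hPRLR-overexpressing lines. HEK293: CCK8 OD450; MCF7: Hoechst nuclear counts by imaging.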
# SK-BR-3 cells = assay: Cell viability (cell kill) assay; format: cell-based; settings: Table 16
# PC3 cells = assay: Cell viability (cell kill) assay; format: cell-based
# Method in brief: as §4
# [1] = system: MCF7/hPRLR (MCF7/PRLR) cells; assay: Cell viability (cell kill) assay, nuclear counts; format: cell-based, human
# Method in brief: as §1
# [2] = system: HEK293/hPRLR (293/hPRLR) cells; assay: Cell viability (cell kill) assay; format: cell-based, human; settings: 293/PRLR; for IC50: read-out: IC50
# From the text: as §2, §3
# HEK293/IL-4R cells = assay: Cytotoxicity (cell viability, CCK8) assay; format: cell-based; settings: HEK293/hIL4R; Table 28; 3 days
# Procedure: (§6) Next, exemplary anti-IL-4R (H4H083P2) and anti-IL-6R (VV6A9-5) antibodies were conjugated to the cytotoxic drug DM1 and their potency in cytotoxicity assays was evaluated. Briefly, HEK293/IL-4R, Ramos or KG-1 cell lines, as well as HEK293 parental cells were seeded in PDL-coated 96-well plates at 1500 to 10,000 cells per well. ADCs or free DM1 (as the methyl disulfide derivative DM1-SMe) were added to the cells at final concentrations ranging from 300 nM to 15 pM and incubated for 3 days. Cells were incubated with CCK8 (Dojindo, Rockville, Md.) for the final 1-3 hours and the absorbance at 450 nm (OD450) was determined on a Flexstation3 (Molecular Devices, Sunnyvale, Calif.). Background OD450 values from digitonin (40 nM) treated cells were subtracted from all wells and viability was expressed as a percentage of the untreated controls. IC50 values were determined from a four-parameter logistic equation over a 10-point response curve (GraphPad Prism).
# Ramos cells = assay: Cytotoxicity (cell viability, CCK8) assay; format: cell-based; settings: Table 28, 3 days
# Procedure: as §6
# HEK293 parental cells = assay: Cytotoxicity (cell viability, CCK8) assay; format: cell-based; settings: Table 28, 3 days
# Procedure: as §6
# KG-1 cells = assay: Cytotoxicity (cell viability, CCK8) assay; format: cell-based; settings: Table 28, 3 days
# Procedure: as §6
# [3] = molecular target: T1, IL-6R on KG-1, HEK293, HEK293/IL-4R and Ramos cells; assay: FACS relative cell surface expression with anti-IL-6R antibody VV6A9-5; format: binding
# Procedure: Cell surface antigen levels on cells that endogenously or recombinantly express IL-4R or IL-6R were first established using FACS. Briefly, approximately 1 million KG-1 (IL-4R^+), HEK293/IL-4R and Ramos (IL-6R^+) cells were incubated with exemplary anti-IL-4R (H4H083P2, see U.S. Pat. No. 7,608,693) and anti-IL-6R (VV6A9-5, see U.S. Pat. No. 7,582,298) antibodies for 30 min on ice. After washing, a PE-conjugated anti-human secondary antibody (10 μg/ml) was added for 30 min followed by a second washing step and subsequent analysis on an Accuri C6 cytometer using FlowJo software (Tree Star, Inc., Ashland, Oreg.). Relative IL-4R and IL-6R cell surface expression levels were calculated as the mean fluorescence intensity (MFI) above isotype control levels.
molecule,measurement,setting,value
COc1cc2cc(c1Cl)N(C)C(=O)C[C@H](OC(=O)[C@H](C)N(C)C(=O)CCS)[C@]1(C)O[C@H]1[C@H](C)[C@@H]1C[C@@](O)(NC(=O)O1)[C@H](OC)/C=C/C=C(\C)C2 [DM1 (free drug)],% Kill,"MCF7 (MCF7/ATCC) cells; Table 12, 3 days",83%
same,IC50,"MCF7 (MCF7/ATCC) cells; Table 12, 3 days",1.17 nM
same,% Kill,MCF7 (MCF7/ATCC) cells; Table 16,78%
same,IC50,MCF7 (MCF7/ATCC) cells; Table 16,0.54 nM
same,% Kill,NCI-N87 cells,95%
same,IC50,NCI-N87 cells,0.84 nM
same,% Kill,"PC3/hPRLR cells; Table 11, 3 days",80%
same,IC50,"PC3/hPRLR cells; Table 11, 3 days",0.59 nM
same,% Kill,PC3/hPRLR cells; Table 15,82%
same,IC50,PC3/hPRLR cells; Table 15,0.24 nM
same,% Kill,"T47D cells; Table 12, 3 days",86%
same,IC50,"T47D cells; Table 12, 3 days",0.45 nM
same,% Kill,T47D cells; Table 16,80%
same,IC50,T47D cells; Table 16,0.21 nM
same,% Kill,PC3/hErbB2 cells,85%
same,IC50,PC3/hErbB2 cells,0.42 nM
same,% Kill,T47D/hErbB2 cells,71%
same,IC50,T47D/hErbB2 cells,0.18 nM
same,% Kill,HEK293/hErbB2 cells,100%
same,IC50,HEK293/hErbB2 cells,0.26 nM
same,% Kill,MCF7/hPRLR/hErbB2 cells,77%
same,IC50,MCF7/hPRLR/hErbB2 cells,0.82 nM
same,% Kill,NCI-N87/hPRLR cells,98%
same,IC50,NCI-N87/hPRLR cells,1.45 nM
same,% Kill,"HEK293 (293) cells; Table 11, 3 days",98%
same,IC50,"HEK293 (293) cells; Table 11, 3 days",0.27 nM
same,% Kill,HEK293 (293) cells; Table 14,95%
same,IC50,HEK293 (293) cells; Table 14,0.5 nM
same,% Kill,SK-BR-3 cells,74%
same,IC50,SK-BR-3 cells,0.39 nM
same,% Kill,"PC3 cells; Table 11, 3 days",91%
same,IC50,"PC3 cells; Table 11, 3 days",0.47 nM
same,% Kill,PC3 cells; Table 15,88%
same,IC50,PC3 cells; Table 15,0.44 nM
same,% Kill,"[1]; Table 12, 3 days",88%
same,IC50,"[1]; Table 12, 3 days",1.47 nM
same,% Kill,[1]; Table 17,79%
same,IC50,[1]; Table 17,1.85 nM
same,% Kill,"[2]; Table 11, 3 days",97%
same,IC50,"[2]; Table 11, 3 days",0.36 nM
same,% Kill,[2]; Table 14,95%
same,IC50,[2]; Table 14,0.82 nM
COc1cc2cc(c1Cl)N(C)C(=O)C[C@H](OC(=O)[C@H](C)N(C)C(=O)CCS)[C@]1(C)O[C@H]1[C@H](C)[C@@H]1C[C@@](O)(NC(=O)O1)[C@H](OC)/C=C/C=C(\C)C2 [DM1 (Free Drug)],% Kill,HEK293/IL-4R cells,98%
same,IC50,HEK293/IL-4R cells,0.33 nM
same,% Kill,Ramos cells,100%
same,IC50,Ramos cells,0.34 nM
same,% Kill,HEK293 parental cells,100%
same,IC50,HEK293 parental cells,0.27 nM
same,% Kill,KG-1 cells,89%
same,IC50,KG-1 cells,1.26 nM
B1,IL-6R Cell Line Expression Level; Fold Over Background,[3]; HEK293,1
same,IL-6R Cell Line Expression Level; Fold Over Background,[3]; HEK293/IL4R,1
same,IL-6R Cell Line Expression Level; Fold Over Background,[3]; KG-1,7
same,IL-6R Cell Line Expression Level; Fold Over Background,[3]; Ramos,1
